Counter-ions that a name gives are not always drawn.

Holding throughout (assay type): cell-based
Assay [1] has as its target T1, hOX1R (Homo sapiens, UniProt O43613).
T1 sequence (O43613 1-425): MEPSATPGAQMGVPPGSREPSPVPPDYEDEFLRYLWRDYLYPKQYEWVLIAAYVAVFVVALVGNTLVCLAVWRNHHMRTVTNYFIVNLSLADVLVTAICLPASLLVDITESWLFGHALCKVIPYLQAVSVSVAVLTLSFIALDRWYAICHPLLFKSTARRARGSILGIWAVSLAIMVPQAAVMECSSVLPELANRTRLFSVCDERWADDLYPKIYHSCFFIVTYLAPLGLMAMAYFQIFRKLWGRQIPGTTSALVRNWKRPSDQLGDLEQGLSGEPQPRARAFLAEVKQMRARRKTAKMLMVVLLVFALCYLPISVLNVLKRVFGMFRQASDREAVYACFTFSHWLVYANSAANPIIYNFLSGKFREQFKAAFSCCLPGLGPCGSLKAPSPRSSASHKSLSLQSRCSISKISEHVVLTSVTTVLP
Briefly: Intracellular calcium measurements using stable-replicating cells, Method B (CHO cells, FLIPR Tetra), OX1. The conditions noted are these: orexin A at EC75, read-out: pIC50 OX1 (converted). Here is the method:
Intracellular Calcium Measurements Using Stable-replicating Cells:
Human OX1 or human OX2 receptor expressing CHO cells are plated into 384 well black, clear bottom, CellBIND plates at a seeding density of 10,000 cells/75 μL growth media. The seeded plates are incubated at 37° C. in air supplemented with 5% CO2 overnight.
The next day media is removed and replaced with 30 μL/well of cell loading buffer (a vial of Calcium 5 is solubilized in 20 mL of assay buffer) and the cells incubated for 1 hr at 37° C. The serially diluted test compounds (10 μL/well) are added to the cell plate by the FLIPR Tetra and the addition is monitored for 5 mins by the instrument. The cell plate is then removed and incubated for additional 25 mins in a humidified incubator at […] prior to being placed back into the FLIPR Tetra. Finally 10 μL of orexin A in assay buffer +0.1% (w/v) bovine serum albumin is dispensed by the FLIPR Tetra at an EC75 concentration determined for each assay run. Fluorescence is measured at excitation and emission wavelengths of 485 nm and 525 nm respectively and data analyzed using GraphPad Prism for the EC75 value of orexin A and Aplus to determine an IC50 value for each test compound.
(Calcium assays in cells follow changes in intracellular calcium, usually with a dye or a luminescent sensor.)

The target in assay [2] is T1, hOX1R. Briefly: Intracellular calcium measurements using division-arrested cells, OX1. The settings on record: agonist orexin A at 2×EC50, * = single experiment, otherwise average of at least two, read-out: pIC50 OX1 (converted). The method, then: (§1) Intracellular Calcium Measurements Using Division-arrested Cells (Table 1):
(§2) Test compounds are prepared as 10 mM stock solutions in DMSO, then serially diluted in half log concentrations with DMSO followed by dilution with assay buffer (HBSS (Sigma-Aldrich, H8264) containing 20 mM HEPES (Sigma-Aldrich, H4034), 0.1% (w/v) bovine serum albumin and adjusted to pH 7.4) to a top final assay concentration of 10 μM.
(§3) Human OX1 (CT-A474) and human OX2 (CT-A475) receptor-expressing division-arrested cells are plated into 384 well black, clear bottom, cell-bind plates at a seeding density of 10,000 cells/50 μL growth media. The seeded plates are incubated at 37° C. in air supplemented with 5% CO2 for 16 hrs.
(§4) The media is removed and replaced with 30 μL/well of cell loading buffer (a vial of Calcium 5 is solubilized in 22 mL of assay buffer to which a freshly prepared 250 mM solution of probenecid in 1:1 1M NaOH to assay buffer (200 μL) is added) and the cells incubated for 1 hr at 37° C. The serially diluted test compounds (10 μL/well) are added to the plate, which is then incubated for 10 mins and placed in a FlexStation III reader.

In assay [3] the target is T2, hOX2R (Homo sapiens, UniProt O43614).
T2 sequence (O43614 1-444): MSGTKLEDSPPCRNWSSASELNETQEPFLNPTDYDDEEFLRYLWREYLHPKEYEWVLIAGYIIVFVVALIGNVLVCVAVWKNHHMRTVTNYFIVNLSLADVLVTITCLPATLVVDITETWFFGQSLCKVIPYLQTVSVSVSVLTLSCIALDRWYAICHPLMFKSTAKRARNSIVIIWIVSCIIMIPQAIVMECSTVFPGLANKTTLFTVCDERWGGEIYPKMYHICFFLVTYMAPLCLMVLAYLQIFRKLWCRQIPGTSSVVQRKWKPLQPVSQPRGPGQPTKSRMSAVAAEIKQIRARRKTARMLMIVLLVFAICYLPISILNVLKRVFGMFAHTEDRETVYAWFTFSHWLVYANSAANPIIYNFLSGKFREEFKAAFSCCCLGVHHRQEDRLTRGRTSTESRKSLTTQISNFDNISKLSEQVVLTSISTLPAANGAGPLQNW
Briefly: Intracellular calcium measurements using division-arrested cells, OX2. The conditions noted are these: agonist orexin B at 2×EC50, * = single experiment, otherwise average of at least two, read-out: pIC50 OX2 (converted). Here is the method:
as §1, §2, §3, §4

On to `Cc1ccc(-n2nccn2)c(C(=O)N(C)[C@H](CNc2cnc(C(F)(F)F)cn2)C(C)C)n1` [Example 67, (S)—N,6-dimethyl-N-(3-methyl-1-((5-(trifluoromethyl)pyrazin-2-yl)amino)butan-2-yl)-3-(2H-1,2,3-triazol-2-yl)picolinamide], for which the IC50 in assay [1] is 7.94 nM.
With `CC[C@@H](CNc1ncc(C(F)(F)F)cn1)N(C)C(=O)c1nc(C)ccc1-c1ncccn1` [Example 84, (S)—N,6-dimethyl-3-(pyrimidin-2-yl)-N-(1-((5-(trifluoromethyl)pyrimidin-2-yl)amino)butan-2-yl)picolinamide formic acid salt], the IC50 in assay [1] is 2 nM.
For `CC(C)[C@@H](CNc1ccc(Cl)cn1)N(C)C(=O)c1c(-c2ccccc2)[nH]c2ccccc12` [Example 27, (S)—N-(1-((5-chloropyridin-2-yl)amino)-3-methylbutan-2-yl)-N-methyl-2-phenyl-1H-indole-3-carboxamide], the figures for the IC50 in assay [2] and in assay [3] were 158 nM and 501 nM, respectively.
With `CN(C(=O)c1ccccc1-c1ccccc1)[C@H](CNc1ccc(Cl)cn1)C1CC1` [Example 13, (S)—N-(2-((5-chloropyridin-2-yl)amino)-1-cyclopropylethyl)-N-methyl-[1,1′-biphenyl]-2-carboxamide], the IC50 in assay [2] is 39.8 nM; in assay [3], 2510 nM.
With `CC[C@@H](CNc1ccc(Cl)cn1)N(C)C(=O)c1cc(F)ccc1-n1nccn1` [Example 18, (S)—N-(1-((5-chloropyridin-2-yl)amino)butan-2-yl)-5-fluoro-N-methyl-2-(2H-1,2,3-triazol-2-yl)benzamide], the IC50 in assay [2] was 79.4 nM; in assay [3] it was more than 10000 nM.
On to `CC(C)[C@@H](CNc1ccc(Cl)cn1)N(C)C(=O)c1ccccc1-n1nccn1` [Example 28, (S)—N-(1-((5-chloropyridin-2-yl)amino)-3-methylbutan-2-yl)-N-methyl-2-(2H-1,2,3-triazol-2-yl)benzamide], for which the IC50 in assay [2] was 200 nM; in assay [3] it was more than 10000 nM.
The matching figures for `CC(C)C[C@@H](CNc1ccc(Cl)cn1)NC(=O)c1ccccc1-c1ccccc1` [Example 5, (S)—N-(1-((5-chloropyridin-2-yl)amino)-4-methylpentan-2-yl)-[1,1′-biphenyl]-2-carboxamide]: 1000 nM and more than 10000 nM.
Turning to `CC(C)[C@@H](CNC(=O)Nc1ccccc1)N(C)C(=O)c1ccccc1-c1ccccc1` [Example 58, (S)—N-methyl-N-(3-methyl-1-(3-phenylureido)butan-2-yl)-[1,1′-biphenyl]-2-carboxamide], the values for the IC50 in assay [2] and in assay [3] were 126 nM and more than 5010 nM, respectively.
In the case of `CC[C@@H](CNc1ncc(C(F)(F)F)cn1)N(C)C(=O)c1nc(OC)ccc1-n1nccn1` [Example 92, (S)-6-methoxy-N-methyl-3-(2H-1,2,3-triazol-2-yl)-N-(1-((5-(trifluoromethyl)pyrimidin-2-yl)amino)butan-2-yl)picolinamide], in assay [1], the IC50 is 31.6 nM.
As to `CC[C@@H](CNc1cnc(C(F)(F)F)cn1)N(CC)C(=O)c1nc(C)ccc1-n1nccn1` [Example 70, (S)—N-ethyl-6-methyl-3-(2H-1,2,3-triazol-2-yl)-N-(1-((5-(trifluoromethyl)pyrazin-2-yl)amino)butan-2-yl)picolinamide], the IC50 in assay [1] is 1.58 nM.
Turning to `CC[C@@H](CNc1ccc(Cl)cn1)NC(=O)c1cc(C)ccc1-n1nccn1` [Example 2, (S)—N-(1-((5-chloropyridin-2-yl)amino)butan-2-yl)-5-methyl-2-(2H-1,2,3-triazol-2-yl)benzamide], the figures for the IC50 in assay [2] and in assay [3] were 39.8 nM and 2000 nM, respectively.
`CC(C)[C@@H](CNc1ccc(Cl)cn1)N(C)C(=O)c1ccccc1OC(F)(F)F` [Example 52, (S)—N-(1-((5-chloropyridin-2-yl)amino)-3-methylbutan-2-yl)-N-methyl-2-(trifluoromethoxy)benzamide]: the IC50 was 1000 nM in assay [2] and more than 7940 nM in assay [3].
`Cc1nc(-c2ccccc2)c(C(=O)N(C)[C@H](CNc2ccc(Cl)cn2)C(C)C)s1` [Example 11, (S)—N-(1-((5-chloropyridin-2-yl)amino)-3-methylbutan-2-yl)-N,2-dimethyl-4-phenylthiazole-5-carboxamide]: the results for the IC50 in assay [2] and in assay [3] were 79.4 nM and more than 7940 nM, respectively.
Turning to `CC(C)[C@@H](CNC(=O)c1ccc(F)cc1)N(C)C(=O)c1ccccc1-c1ccccc1` [Example 56, (S)—N-(1-(4-fluorobenzamido)-3-methylbutan-2-yl)-N-methyl-[1,1′-biphenyl]-2-carboxamide], the IC50 in assay [2] is 126 nM; in assay [3], more than 3160 nM.
On to `CC(C)[C@@H](COc1ccc(Cl)cn1)N(C)C(=O)c1ccccc1-c1ccccc1` [Example 34, (S)—N-(1-((5-chloropyridin-2-yl)oxy)-3-methylbutan-2-yl)-N-methyl-[1,1′-biphenyl]-2-carboxamide], for which the IC50 in assay [2] is 200 nM; in assay [3], more than 3160 nM.
The matching figures for `CC[C@@H](CNc1ccc(Cl)cn1)N(C)C(=O)c1cc(N(C)C)ccc1-n1nccn1` [Example 23, (S)—N-(1-((5-chloropyridin-2-yl)amino)butan-2-yl)-5-(dimethylamino)-N-methyl-2-(2H-1,2,3-triazol-2-yl)benzamide]: 25.1 nM and 2510 nM.
On to `CC(C)[C@@H](CNc1nccc(-c2ccccc2)n1)N(C)C(=O)c1ccccc1-c1ccccc1` [Example 35, (S)—N-methyl-N-(3-methyl-1-((4-phenylpyrimidin-2-yl)amino)butan-2-yl)-[1,1′-biphenyl]-2-carboxamide], for which the IC50 in assay [2] is 79.4 nM; in assay [3], 2000 nM.
Regarding `Cc1nc(C(=O)N(C)[C@H](CNc2ccc(Cl)cn2)C(C)C)c(-c2ccccc2)s1` [Example 26, (S)—N-(1-((5-chloropyridin-2-yl)amino)-3-methylbutan-2-yl)-N,2-dimethyl-5-phenylthiazole-4-carboxamide], the IC50 in assay [2] was 31.6 nM; in assay [3] it was 2000 nM.
Consider `CC(C)[C@@H](CNc1ccc(Cl)cc1)N(C)C(=O)c1ccccc1-c1ccccc1` [Example 59, (S)—N-(1-((4-chlorophenyl)amino)-3-methylbutan-2-yl)-N-methyl-[1,1′-biphenyl]-2-carboxamide], for which the IC50 in assay [2] was 158 nM; in assay [3], more than 6310 nM.
The matching figures for `CC[C@@H](CNc1ccc(C(F)(F)F)nc1)N(C)C(=O)c1cc(Cl)ccc1-n1nccn1` [Example 54, (S)-5-chloro-N-methyl-2-(2H-1,2,3-triazol-2-yl)-N-(1-((6-(trifluoromethyl)pyridin-3-yl)amino)butan-2-yl)benzamide]: 20 nM and 1260 nM.
As to `Cc1cc(C(=O)N(C)[C@H](CNc2ccc(Cl)cn2)C(C)C)c2ccccc2n1` [Example 51, (S)—N-(1-((5-chloropyridin-2-yl)amino)-3-methylbutan-2-yl)-N,2-dimethylquinoline-4-carboxamide], the IC50 was 631 nM in assay [2] and more than 10000 nM in assay [3].

The values are drawn from patent US10611760B2, “Therapeutic compounds as inhibitors of the orexin-1 receptor” (C4X Discovery Limited, priority 2014, dated 2020).
